In ChEMBL document CHEMBL4480435, “The impact of binding site waters on the activity/selectivity trade-off of Janus kinase 2 (JAK2) inhibitors” (Bioorg Med Chem, 2019):

How the values were obtained:
[1] = biological target: T1, Tyrosine-protein kinase JAK2 (Homo sapiens, UniProt O60674); test: Inhibition of JAK2 (unknown origin) after 1 hr FRET-based Z'-Lyte assay
[2] = biological target: T2, Tyrosine-protein kinase JAK1 (Homo sapiens, UniProt P23458); test: Inhibition of JAK1 (unknown origin) after 1 hr by FRET-based Z'-Lyte assay
T2 sequence (P23458 whole entry): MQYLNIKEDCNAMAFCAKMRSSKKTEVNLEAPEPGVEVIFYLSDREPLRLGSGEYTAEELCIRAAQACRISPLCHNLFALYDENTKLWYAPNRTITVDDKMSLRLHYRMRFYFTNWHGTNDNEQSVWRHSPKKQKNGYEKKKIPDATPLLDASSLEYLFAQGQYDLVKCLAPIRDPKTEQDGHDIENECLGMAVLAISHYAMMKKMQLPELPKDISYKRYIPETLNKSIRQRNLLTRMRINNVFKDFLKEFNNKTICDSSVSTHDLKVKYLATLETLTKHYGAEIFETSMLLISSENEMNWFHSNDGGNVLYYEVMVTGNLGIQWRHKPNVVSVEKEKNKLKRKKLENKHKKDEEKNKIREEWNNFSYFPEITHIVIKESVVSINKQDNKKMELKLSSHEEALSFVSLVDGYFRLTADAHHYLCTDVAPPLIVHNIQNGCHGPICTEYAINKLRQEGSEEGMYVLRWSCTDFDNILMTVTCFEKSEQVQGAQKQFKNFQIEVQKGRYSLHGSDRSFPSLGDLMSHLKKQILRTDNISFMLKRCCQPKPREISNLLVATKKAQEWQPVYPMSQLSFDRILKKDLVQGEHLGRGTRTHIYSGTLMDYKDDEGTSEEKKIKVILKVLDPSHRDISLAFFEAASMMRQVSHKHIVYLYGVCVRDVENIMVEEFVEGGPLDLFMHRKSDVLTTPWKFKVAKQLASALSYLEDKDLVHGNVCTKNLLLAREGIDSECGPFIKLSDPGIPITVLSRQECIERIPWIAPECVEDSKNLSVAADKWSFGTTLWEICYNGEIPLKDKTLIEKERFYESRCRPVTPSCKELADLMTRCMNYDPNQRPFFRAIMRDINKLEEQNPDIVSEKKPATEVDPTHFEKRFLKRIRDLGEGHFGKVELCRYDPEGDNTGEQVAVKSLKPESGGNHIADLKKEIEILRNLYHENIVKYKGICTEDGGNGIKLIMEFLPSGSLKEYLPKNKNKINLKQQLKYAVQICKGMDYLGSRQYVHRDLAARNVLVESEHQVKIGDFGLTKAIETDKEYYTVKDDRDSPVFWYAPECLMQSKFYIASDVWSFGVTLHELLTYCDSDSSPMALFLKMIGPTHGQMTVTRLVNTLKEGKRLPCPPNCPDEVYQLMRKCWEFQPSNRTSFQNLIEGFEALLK

Homo sapiens = species on record: Homo sapiens; test: Selectivity ratio of IC50 for JAK1 (unknown origin) to IC50 for JAK2 (unknown origin)
[3] = biological target: T2, Tyrosine-protein kinase JAK1; test: Inhibition of JAK1 (unknown origin) at 20 uM after 1 hr by FRET-based Z'-Lyte assay
[4] = biological target: T2, Tyrosine-protein kinase JAK1
Description: Inhibition of human recombinant JAK1 (852 to 1142 residues) by Z-Lyte assay

[5] = biological target: T1, Tyrosine-protein kinase JAK2
Description: Inhibition of human recombinant JAK2 (808 to 1132 residues) by Z-Lyte assay

[6] = biological target: T2, Tyrosine-protein kinase JAK1; test: Inhibition of JAK1 (unknown origin) at 10 uM after 1 hr by FRET-based Z'-Lyte assay

T1 sequence (O60674 whole entry): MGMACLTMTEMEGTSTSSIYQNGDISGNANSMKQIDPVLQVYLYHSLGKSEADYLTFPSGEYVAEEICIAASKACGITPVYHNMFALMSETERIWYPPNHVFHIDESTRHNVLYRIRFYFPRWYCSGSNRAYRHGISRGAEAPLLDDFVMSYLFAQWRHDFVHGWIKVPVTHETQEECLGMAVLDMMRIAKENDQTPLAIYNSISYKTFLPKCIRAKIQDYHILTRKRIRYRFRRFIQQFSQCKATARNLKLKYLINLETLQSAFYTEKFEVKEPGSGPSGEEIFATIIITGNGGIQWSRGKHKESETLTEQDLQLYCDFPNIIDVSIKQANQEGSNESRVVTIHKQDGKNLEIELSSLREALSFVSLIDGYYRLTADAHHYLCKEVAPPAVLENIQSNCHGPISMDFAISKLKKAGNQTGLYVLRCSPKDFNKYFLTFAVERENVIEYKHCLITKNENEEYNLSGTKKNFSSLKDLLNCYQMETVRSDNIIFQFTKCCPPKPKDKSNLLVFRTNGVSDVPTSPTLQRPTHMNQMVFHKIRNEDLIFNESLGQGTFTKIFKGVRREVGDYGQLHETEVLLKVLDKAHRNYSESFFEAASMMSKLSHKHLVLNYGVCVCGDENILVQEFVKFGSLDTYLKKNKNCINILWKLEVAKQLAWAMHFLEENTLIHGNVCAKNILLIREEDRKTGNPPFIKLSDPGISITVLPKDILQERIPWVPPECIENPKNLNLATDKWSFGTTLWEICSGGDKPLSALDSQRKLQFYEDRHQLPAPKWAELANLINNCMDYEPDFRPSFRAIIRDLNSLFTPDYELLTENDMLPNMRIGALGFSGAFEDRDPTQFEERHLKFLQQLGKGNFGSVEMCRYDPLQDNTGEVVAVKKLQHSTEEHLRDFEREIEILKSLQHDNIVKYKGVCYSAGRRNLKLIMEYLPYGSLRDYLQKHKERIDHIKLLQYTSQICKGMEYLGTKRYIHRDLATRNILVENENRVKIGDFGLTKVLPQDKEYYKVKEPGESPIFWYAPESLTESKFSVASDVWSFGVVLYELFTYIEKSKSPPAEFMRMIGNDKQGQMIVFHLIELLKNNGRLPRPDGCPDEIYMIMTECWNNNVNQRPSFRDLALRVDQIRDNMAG

Compound | IC50 [1] [nM] | IC50 [2] [nM] | Ratio IC50 (Homo sapiens) | inhibition [3] [%] | IC50 [4] [nM] | IC50 [5] [nM] | inhibition [6] [%]
Nc1n[nH]c2ccc(NC(=O)c3cc(Cl)ccc3Cl)cc12 | 23 | 151 | 6.57 |  |  |  | 
O=C(Nc1ccc2[nH]ncc2c1)c1ccccc1 |  |  |  | 17 |  |  | 
O=C(Nc1ccc2[nH]ncc2c1)c1ccccc1Cn1cnnn1 | 3540 | 9670 | 2.7 |  |  |  | 
O=C(Nc1ccc2[nH]ncc2c1)c1c(Cl)cccc1-n1cnnn1 | 820 | 11500 | 14 |  |  |  | 
c1ccc(-n2cnnn2)c(-c2nc(-c3ccc4[nH]ncc4c3)cs2)c1 | 1540 | 7940 | 5 |  |  |  | 
O=C(Nc1ccc2[nH]ncc2c1)c1ccccc1Cl | 453 | 8530 | 18.8 |  |  |  | 
Nc1n[nH]c2ccc(C(=O)Nc3ccccc3)cc12 | 3230 | 10800 | 3.78 |  |  |  | 
CNS(=O)(=O)C[C@H]1CC[C@H](N(C)c2ncnc3[nH]ccc23)CC1 [OCLACITINIB] |  |  |  |  | 10 | 18 | 
O=C(Nc1ccc2[nH]ncc2c1)c1cccc(-n2cnnn2)c1 | 718 | 764 | 1 |  |  |  | 
Clc1cccc(-n2cnnn2)c1-c1nc(-c2ccc3[nH]ncc3c2)cs1 | 1680 | 21600 | 12.8 |  |  |  | 
O=C(Nc1ccc2[nH]ncc2c1)c1ccccc1-n1cnnn1 | 2380 | 33000 | 14 |  |  |  | 
Nc1n[nH]c2ccc(C(=O)Nc3c(Cl)cccc3Cl)cc12 | 28 | 460 | 16 |  |  |  | 
c1ccc(-n2cnnn2)c(-c2cc(-c3ccc4[nH]ncc4c3)on2)c1 | 2000 | 3300 | 1.65 |  |  |  | 
Nc1n[nH]c2ccc(C(=O)Nc3ccccc3Cl)cc12 | 126 | 2270 | 18 |  |  |  | 
Nc1n[nH]c2ccc(NC(=O)c3c(Cl)cccc3-n3cnnn3)cc12 | 76600 |  |  |  |  |  | 10
CCNc1ccccc1C(=O)Nc1ccc2[nH]ncc2c1 | 3960 | 24100 | 6 |  |  |  | 

Further lines, results first:

IC50 [1] [nM] | IC50 [2] [nM] | Ratio IC50 (Homo sapiens) | inhibition [3] [%] | IC50 [4] [nM] | IC50 [5] [nM] | inhibition [6] [%] | Compound
6340 | 33900 | 5.3 |  |  |  |  | Nc1n[nH]c2ccc(NC(=O)c3ccccc3-n3cnnn3)cc12
 |  |  | 20 |  |  |  | O=C(Nc1ccc2[nH]ncc2c1)c1cccc(Cn2cnnn2)c1
1970 | 22000 | 11 |  |  |  |  | CCNc1ccccc1C(=O)Nc1ccc2[nH]nc(N)c2c1
3250 | 9290 | 2.85 |  |  |  |  | Nc1n[nH]c2ccc(-c3cnc(-c4ccccc4-n4cnnn4)s3)cc12
38 | 414 | 11 |  |  |  |  | Nc1n[nH]c2ccc(C(=O)Nc3cc(Cl)ccc3Cl)cc12
101 | 1820 | 18 |  |  |  |  | Nc1n[nH]c2ccc(NC(=O)c3ccccc3Cl)cc12
583 | 943 | 1.63 |  |  |  |  | Nc1n[nH]c2ccc(NC(=O)c3cccc(Cl)c3)cc12
9530 | 8800 | 0.9 |  |  |  |  | c1ccc(-n2cnnn2)c(-c2cn(-c3ccc4[nH]ncc4c3)nn2)c1
2780 | 10500 | 3.78 |  |  |  |  | Nc1n[nH]c2ccc(NC(=O)c3ccccc3)cc12
411 | 1510 | 3.67 |  |  |  |  | Nc1n[nH]c2ccc(NC(=O)c3cccc(Cl)c3Cl)cc12
